These results are taken from patent publication US9045491B2, “Thienyl [3,2-D] pyrimidin-4-one compounds, preparation method, pharmaceutical compositions and use thereof” (SHANGHAI INSTITUTE OF MATERIA MEDICA, CHINESE ACADEMY OF …, priority 2011, dated 2015).

As a reminder, the IC50 is the concentration that inhibits the measured activity by half.

Holding throughout (type): biochemical
One experiment deals with T1, human DPP IV (Homo sapiens, UniProt P27487).
T1 construct: extracellular fragment of protease DPP IV (aa29-766); made in house; host or cells: baculovirus expression system Bac-to-Bac
The experiment in a line: DPP IV activity screening (Ala-Pro-AMC fluorescence). As for the experimental part:
(§1) Screening method: dipeptidyl peptidase IV (DPP IV) activity screening, dipeptidyl peptidase 7 (DPP 7), dipeptidyl peptidase 8 (DPP 8) activity screening, and dipeptidyl peptidase 9 (DPP 9) activity screening.
Instruments: Microplate Reader (PerkinElmer, USA).
The linear change of fluorescence value at 460 nm in unit time was dynamically measured and DPP IV activity was obtained by calculation.
(§2) Sample treatment: the sample was dissolved in DMSO and stored in low temperature. The concentration of DMSO in the final system was controlled so that the detected activity was not affected.
(§3) The activity of sample was tested under the selected single concentration from preliminary screening, for example, 20 μg/mL. […] The software for calculation was Graphpad Prism 4 and the model used for fitting was sigmoidal dose-response (variable slope). For most inhibitor screening models, the bottom and top of the fitting curve were set to 0 and 100.

The target in experiment [1] is dipeptidyl peptidase 7 (DPP 7) (Homo sapiens, UniProt Q9UHL4). The experiment in a line: DPP 7 activity screening. The settings on record: N.I. = No Inhibition. Here is the method: as §1, §2, §3
Another experiment deals with T2, human DPP 8 (Homo sapiens, UniProt Q6V1X1).
T2 construct: made in house; host or cells: insect cells, baculovirus Bac-to-Bac
The experiment in a line: DPP 8 activity screening (Ala-Pro-AMC fluorescence). Conditions: N.I. = No Inhibition.
Text: as §1
(§4) Materials: human DPP IV, obtained extracellular fragment of protease DPP IV (aa29-766), was expressed and purified by our laboratory using baculovirus expression system Bac-to-Bac (purchased from GIBCO company) in accordance with the conventional experimental technology; human DPP 8 was obtained in insect cells by our laboratory using baculovirus expression system Bac-to-Bac (purchased from GIBCO company) in accordance with the conventional experimental technology; Human DPP 9 was obtained in insect cells by our laboratory using baculovirus expression system Bac-to-Bac (purchased from GIBCO company) in accordance with the conventional experimental technology; and the substrate Ala-Pro-AMC was synthesized by GL Biochem (Shanghai) Ltd.
(§5) Principle of Activity test: DPP IV, DPP 8 and DPP 9 can specifically hydrolyze the substrate Ala-Pro-AMC to form product AMC, and AMC is excited by 355 nm of UV light to generate 460 nm of emission light. The linear change of fluorescence value at 460 nm in unit time was dynamically measured and DPP IV activity was obtained by calculation.
as §2, §3

In another experiment the target is T3, Human DPP 9 (Homo sapiens, UniProt Q86TI2).
T3 construct: made in house; host or cells: insect cells, baculovirus Bac-to-Bac
The experiment in a line: DPP 9 activity screening (Ala-Pro-AMC fluorescence). The settings on record: N.I. = No Inhibition.
Text: as §1, §4, §5, §2, §3

A further experiment concerns the target T4, FAP (Homo sapiens, UniProt Q12884).
T4 sequence (Q12884 1-760): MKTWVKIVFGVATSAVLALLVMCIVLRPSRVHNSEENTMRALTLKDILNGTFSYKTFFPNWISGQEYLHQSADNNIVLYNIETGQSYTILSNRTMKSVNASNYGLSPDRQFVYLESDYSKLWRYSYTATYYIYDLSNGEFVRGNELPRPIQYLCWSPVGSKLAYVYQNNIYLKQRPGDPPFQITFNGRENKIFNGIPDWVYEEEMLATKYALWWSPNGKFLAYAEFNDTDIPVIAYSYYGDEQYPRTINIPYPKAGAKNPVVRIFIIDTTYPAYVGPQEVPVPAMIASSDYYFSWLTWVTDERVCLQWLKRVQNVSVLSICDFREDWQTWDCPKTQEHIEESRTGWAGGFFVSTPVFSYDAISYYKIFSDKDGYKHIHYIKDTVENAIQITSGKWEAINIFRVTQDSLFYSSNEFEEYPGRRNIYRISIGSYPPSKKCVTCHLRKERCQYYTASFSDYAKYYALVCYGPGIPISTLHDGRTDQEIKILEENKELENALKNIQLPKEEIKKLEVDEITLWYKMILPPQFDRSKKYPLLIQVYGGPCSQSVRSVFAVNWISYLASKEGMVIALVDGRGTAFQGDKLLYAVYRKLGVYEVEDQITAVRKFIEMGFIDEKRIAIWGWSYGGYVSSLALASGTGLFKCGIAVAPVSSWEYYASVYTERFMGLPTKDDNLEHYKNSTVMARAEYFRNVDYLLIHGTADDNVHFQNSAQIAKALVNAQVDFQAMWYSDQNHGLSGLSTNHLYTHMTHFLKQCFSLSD
The experiment in a line: FAP inhibition (Table 1). The settings on record: N.I. = No Inhibition.

T1 sequence (P27487 29-766): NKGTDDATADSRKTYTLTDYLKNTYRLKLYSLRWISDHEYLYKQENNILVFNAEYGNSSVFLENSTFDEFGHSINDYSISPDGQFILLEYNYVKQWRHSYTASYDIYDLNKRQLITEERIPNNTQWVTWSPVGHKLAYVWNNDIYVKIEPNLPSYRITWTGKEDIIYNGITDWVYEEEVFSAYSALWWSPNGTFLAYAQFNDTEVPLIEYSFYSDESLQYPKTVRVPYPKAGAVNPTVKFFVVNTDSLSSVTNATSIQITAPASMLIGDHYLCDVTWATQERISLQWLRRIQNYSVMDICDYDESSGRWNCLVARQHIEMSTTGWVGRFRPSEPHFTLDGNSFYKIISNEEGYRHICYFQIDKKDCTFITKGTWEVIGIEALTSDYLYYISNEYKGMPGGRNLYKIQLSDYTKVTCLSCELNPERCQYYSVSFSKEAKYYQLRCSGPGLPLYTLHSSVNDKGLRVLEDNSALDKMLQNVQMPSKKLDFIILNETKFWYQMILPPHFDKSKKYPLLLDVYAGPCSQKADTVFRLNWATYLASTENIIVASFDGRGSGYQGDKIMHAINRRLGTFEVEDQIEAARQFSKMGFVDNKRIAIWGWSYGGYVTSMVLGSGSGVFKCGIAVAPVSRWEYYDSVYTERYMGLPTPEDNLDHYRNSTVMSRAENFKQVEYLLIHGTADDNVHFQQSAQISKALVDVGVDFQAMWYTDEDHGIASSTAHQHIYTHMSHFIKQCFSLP
T3 sequence (Q86TI2 whole entry): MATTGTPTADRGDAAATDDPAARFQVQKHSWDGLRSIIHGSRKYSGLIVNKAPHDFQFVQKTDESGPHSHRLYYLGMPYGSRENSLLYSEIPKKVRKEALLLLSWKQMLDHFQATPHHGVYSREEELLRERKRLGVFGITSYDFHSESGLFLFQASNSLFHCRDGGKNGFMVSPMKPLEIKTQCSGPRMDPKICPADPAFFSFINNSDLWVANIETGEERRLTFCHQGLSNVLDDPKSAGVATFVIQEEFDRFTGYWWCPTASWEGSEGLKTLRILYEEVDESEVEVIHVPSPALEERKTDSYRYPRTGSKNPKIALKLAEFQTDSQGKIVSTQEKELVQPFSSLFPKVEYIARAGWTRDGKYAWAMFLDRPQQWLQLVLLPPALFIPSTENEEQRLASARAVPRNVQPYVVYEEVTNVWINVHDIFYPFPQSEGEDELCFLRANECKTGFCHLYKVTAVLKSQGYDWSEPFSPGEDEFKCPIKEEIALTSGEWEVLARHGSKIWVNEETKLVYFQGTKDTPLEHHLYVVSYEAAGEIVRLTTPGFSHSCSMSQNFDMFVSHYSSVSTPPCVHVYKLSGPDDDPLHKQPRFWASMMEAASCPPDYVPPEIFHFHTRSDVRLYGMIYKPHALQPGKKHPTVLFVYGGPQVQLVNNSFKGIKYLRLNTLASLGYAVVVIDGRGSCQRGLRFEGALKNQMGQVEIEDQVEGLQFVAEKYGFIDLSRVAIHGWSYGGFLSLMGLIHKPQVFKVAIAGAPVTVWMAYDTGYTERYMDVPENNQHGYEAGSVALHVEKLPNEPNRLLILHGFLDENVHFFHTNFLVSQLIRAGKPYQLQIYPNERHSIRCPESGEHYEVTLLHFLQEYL
T2 sequence (Q6V1X1 whole entry): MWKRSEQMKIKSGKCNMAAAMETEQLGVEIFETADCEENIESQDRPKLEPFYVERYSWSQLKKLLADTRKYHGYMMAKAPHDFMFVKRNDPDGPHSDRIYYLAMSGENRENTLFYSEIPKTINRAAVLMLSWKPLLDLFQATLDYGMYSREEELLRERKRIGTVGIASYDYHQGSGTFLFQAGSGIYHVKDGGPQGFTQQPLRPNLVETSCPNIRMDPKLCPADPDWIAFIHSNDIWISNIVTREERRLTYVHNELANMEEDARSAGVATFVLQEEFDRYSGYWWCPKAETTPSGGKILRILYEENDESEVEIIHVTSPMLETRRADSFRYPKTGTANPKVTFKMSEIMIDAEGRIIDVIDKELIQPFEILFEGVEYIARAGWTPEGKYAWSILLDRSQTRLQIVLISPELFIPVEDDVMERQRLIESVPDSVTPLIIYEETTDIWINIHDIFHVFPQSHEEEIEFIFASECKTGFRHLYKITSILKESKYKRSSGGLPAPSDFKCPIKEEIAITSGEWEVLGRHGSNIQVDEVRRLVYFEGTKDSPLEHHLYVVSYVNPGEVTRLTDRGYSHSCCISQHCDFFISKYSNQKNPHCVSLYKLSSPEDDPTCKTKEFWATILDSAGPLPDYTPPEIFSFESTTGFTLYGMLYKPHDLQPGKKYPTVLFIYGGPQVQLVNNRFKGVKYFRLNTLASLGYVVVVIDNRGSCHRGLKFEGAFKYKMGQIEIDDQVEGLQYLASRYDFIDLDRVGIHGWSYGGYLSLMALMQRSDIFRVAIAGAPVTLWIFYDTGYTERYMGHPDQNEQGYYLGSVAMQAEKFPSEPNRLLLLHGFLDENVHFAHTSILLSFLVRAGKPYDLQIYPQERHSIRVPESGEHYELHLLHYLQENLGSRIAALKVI

`CCNC(=O)c1cc2nc(N3CCC[C@@H](N)C3)n(Cc3ccccc3C#N)c(=O)c2s1` [Compound 113, (R)-2-(3-aminopiperidin-1-yl)-3-(2-cyanobenzyl)-N-ethyl-4-oxo-3,4-dihydrothieno[3,2-d]pyrimidine-6-carboxamide]: the concentration for half-maximal inhibition (IC50) turned out to be 0.0187 µM against human DPP IV, 166 µM at human DPP 8, 303 µM against Human DPP 9 and 173 µM at FAP. Besides, the “DPP 7 IC50” value in experiment [1] is on record as “N.I”.

`N#Cc1ccccc1Cn1c(N2CCC[C@@H](N)C2)nc2cc(C(=O)NCc3ccccc3Cl)sc2c1=O` [Compound 110, (R)-2-(3-aminopiperidin-1-yl)-N-(2-chlorobenzyl)-3-(2-cyanobenzyl)-4-oxo-3,4-dihydrothieno[3,2-d]pyrimidine-6-carboxamide]: the concentration for half-maximal inhibition (IC50) at human DPP IV was determined as 0.0248 µM; at human DPP 8, 80.6 µM; against Human DPP 9, 51.2 µM; against FAP it was 133 µM. For the same compound, the “DPP 7 IC50” value in experiment [1] was “N.I”.

In the case of `N#Cc1ccccc1Cn1c(N2CCC[C@@H](N)C2)nc2cc(C(=O)NCc3ccccc3F)sc2c1=O` [Compound 109, (R)-2-(3-aminopiperidin-1-yl)-3-(2-cyanobenzyl)-N-(2-fluorobenzyl)-4-oxo-3,4-dihydrothieno[3,2-d]pyrimidine-6-carboxamide], the IC50 against human DPP IV was 0.0156 µM; at human DPP 8 it was 62.1 µM; at Human DPP 9, 91.8 µM; on FAP it was 101 µM. The “DPP 7 IC50” value in experiment [1] is recorded as “N.I”.

At human DPP IV, `N#Cc1ccccc1Cn1c(N2CCC[C@@H](N)C2)nc2cc(CN3CCOCC3)sc2c1=O` [Compound 95, (R)-2-((2-(3-aminopiperidin-1-yl)-6-(morpholinomethyl)-4-oxothieno-[3,2-d]pyrimidin-3(4H)-yl)methyl)benzonitrile] returned an IC50 of 0.0592 µM. Further, in experiment [1], the “DPP 7 IC50” value is on record as “N.I”. Further, the “DPP 8 IC50” value on human DPP 8 was “N.I”. In addition, at Human DPP 9, the “DPP 9 IC50” value is “N.I”. Further, on FAP, the “FAP IC50” value is “N.I”.

As for `N#Cc1ccccc1Cn1c(N2CCC[C@@H](N)C2)nc2cc(C(N)=O)sc2c1=O` [Compound 97, (R)-2-(3-aminopiperidin-1-yl)-3-(2-cyanobenzyl)-4-oxo-3,4-dihydrothieno-[3,2-d]pyrimidine-6-carboxamide], the half-maximal inhibitory concentration (IC50) against human DPP IV amounted to 0.0204 µM. Also, the “DPP 7 IC50” value in experiment [1] is listed as “N.I”. Besides, the “DPP 8 IC50” value on human DPP 8 is “N.I”. In addition, on Human DPP 9, the “DPP 9 IC50” value was “N.I”. For the same compound, on FAP, the “FAP IC50” value is reported as “N.I”.

Consider `N#Cc1ccccc1Cn1c(N2CCC[C@@H](N)C2)nc2c(C(=O)N3CCOCC3)csc2c1=O` [Compound 69, (R)-2-((2-(3-aminopiperidin-1-yl)-7-(morpholine-4-carbonyl)-4-oxothieno-[3,2-d]pyrimidin-3(4H)-yl)methyl)-benzonitrile], for which the IC50 against human DPP IV stood at 0.0321 µM. Moreover, in experiment [1], the “DPP 7 IC50” value is on record as “N.I”. Also, the “DPP 8 IC50” value on human DPP 8 is given as “N.I”. For the same compound, on Human DPP 9, the “DPP 9 IC50” value was “N.I”. The “FAP IC50” value on FAP is listed as “N.I”.

`N#Cc1ccccc1Cn1c(N2CCC[C@@H](N)C2)nc2cc(C(=O)NCC3CC3)sc2c1=O` [Compound 106, (R)-2-(3-aminopiperidin-1-yl)-3-(2-cyanobenzyl)-N-(cyclopropylmethyl)-4-oxo-3,4-dihydrothieno[3,2-d]pyrimidine-6-carboxamide]: the IC50 was 0.0183 µM against human DPP IV, 76.2 µM against human DPP 8, 127 µM at Human DPP 9 and 117 µM at FAP. In experiment [1], the “DPP 7 IC50” value is “N.I”.

As for `N#Cc1ccccc1Cn1c(N2CCC[C@@H](N)C2)nc2cc(CO)sc2c1=O` [Compound 28, (R)-2-((2-(3-aminopiperidin-1-yl)-6-(hydroxymethyl)-4-oxothieno[3,2-d]-pyrimidin-3(4H)-yl)methyl)benzonitrile], the IC50 turned out to be 0.0102 µM against human DPP IV, 27 µM against human DPP 8, 35.2 µM at Human DPP 9 and 85.9 µM on FAP. Besides, the “DPP 7 IC50” value in experiment [1] is listed as “N.I”.

Turning to `CNC(=O)c1csc2c(=O)n(Cc3ccccc3C#N)c(N3CCC[C@@H](N)C3)nc12` [Compound 61, (R)-2-(3-aminopiperidin-1-yl)-3-(2-cyanobenzyl)-N-methyl-4-oxo-3,4-dihydrothieno[3,2-d]pyrimidine-7-carboxamide], the IC50 amounted to 0.0139 µM at human DPP IV, 45.9 µM on human DPP 8, 254 µM against Human DPP 9 and 30.3 µM against FAP. Also, the “DPP 7 IC50” value in experiment [1] was “N.I”.

For `CC(C)CCNC(=O)c1csc2c(=O)n(Cc3ccccc3C#N)c(N3CCC[C@@H](N)C3)nc12` [Compound 78, (R)-2-(3-aminopiperidin-1-yl)-3-(2-cyanobenzyl)-N-isopentyl-4-oxo-3,4-dihydrothieno[3,2-d]pyrimidine-7-carboxamlde], the half-maximal inhibitory concentration (IC50) at human DPP IV is 0.0288 µM; in experiment [1], 27.1 µM; on human DPP 8, 60.4 µM; against Human DPP 9, 407 µM; against FAP, 64.3 µM.

Consider `N#Cc1ccccc1Cn1c(N2CCC[C@@H](N)C2)nc2c(N)csc2c1=O` [Compound 84, (R)-2-((7-amino-2-(3-aminopiperidin-1-yl)-4-oxothieno[3,2-d]pyrimidin-3(4H)-yl)methyl)benzonitriIe], for which the IC50 came to 0.0242 µM against human DPP IV, 62 µM against human DPP 8 and 91.3 µM against FAP. The “DPP 7 IC50” value in experiment [1] is recorded as “N.I”. For the same compound, the “DPP 9 IC50” value on Human DPP 9 is given as “N.I”.

Turning to `N#Cc1ccccc1Cn1c(N2CCC[C@@H](N)C2)nc2c(C(=O)NCC3COC3)csc2c1=O` [Compound 82, (R)-2-(3-aminopiperidin-1-yl)-3-(2-cyanobenzyl)-N-(oxetan-3-ylmethyl)-4-oxo-3,4-dihydrothieno[3,2-d]pyrimidine-7-carboxamide], the IC50 against human DPP IV was found to be 0.0659 µM; at human DPP 8 it was 18.1 µM; against FAP it was 16.5 µM. Further, the “DPP 7 IC50” value in experiment [1] is given as “N.I”. Moreover, the “DPP 9 IC50” value on Human DPP 9 is reported as “N.I”.

Turning to `N#Cc1ccccc1Cn1c(N2CCC[C@@H](N)C2)nc2cc(C(=O)NCc3cccc(C(F)(F)F)c3)sc2c1=O` [Compound 120, (R)-2-(3-aminopiperidin-1-yl)-3-(2-cyanobenzyl)-4-oxo-N-(3-(trifluoromethyl)benzyl)-3,4-dihydrothieno[3,2-d]pyrimidine-6-carboxamide], the IC50 on human DPP IV turned out to be 0.0286 µM; at human DPP 8 it was 53.8 µM; at Human DPP 9 it was 49.7 µM; against FAP, 87.4 µM. Further, the “DPP 7 IC50” value in experiment [1] was “N.I”.

In the case of `CCNC(=O)c1csc2c(=O)n(Cc3ccccc3C#N)c(N3CCC[C@@H](N)C3)nc12` [Compound 71, (R)-2-(3-aminopiperidin-1-yl)-3-(2-cyanobenzyl)-N-ethyl-4-oxo-3,4-dihydrothieno[3,2-d]pyrimidine-7-carboxamide], the 50% inhibitory concentration (IC50) amounted to 0.0143 µM on human DPP IV; 144 µM in experiment [1]; 26.8 µM at human DPP 8; 238 µM on Human DPP 9; 52.1 µM against FAP.

Take `N#Cc1ccccc1Cn1c(N2CCC[C@@H](N)C2)nc2cc(C(=O)NCCO)sc2c1=O` [Compound 123, (R)-2-(3-aminopiperidin-1-yl)-3-(2-cyanobcnzyl)-N-(2-hydroxyethyl)-4-oxo-3,4-dihydrothieno[3,2-d]-pyrimidine-6-carboxamide]: the IC50 on human DPP IV was determined as 0.0198 µM; at human DPP 8 it was 223 µM. Further, in experiment [1], the “DPP 7 IC50” value is on record as “N.I”. On Human DPP 9, the “DPP 9 IC50” value was “N.I”.
